We go through 23 compounds from US10793563B2, “GCN2 inhibitors and uses thereof” (Merck Patent GmbH, priority 2018, dated 2020).

Sequence of GCN2 kinase (Q9P2K8 whole entry): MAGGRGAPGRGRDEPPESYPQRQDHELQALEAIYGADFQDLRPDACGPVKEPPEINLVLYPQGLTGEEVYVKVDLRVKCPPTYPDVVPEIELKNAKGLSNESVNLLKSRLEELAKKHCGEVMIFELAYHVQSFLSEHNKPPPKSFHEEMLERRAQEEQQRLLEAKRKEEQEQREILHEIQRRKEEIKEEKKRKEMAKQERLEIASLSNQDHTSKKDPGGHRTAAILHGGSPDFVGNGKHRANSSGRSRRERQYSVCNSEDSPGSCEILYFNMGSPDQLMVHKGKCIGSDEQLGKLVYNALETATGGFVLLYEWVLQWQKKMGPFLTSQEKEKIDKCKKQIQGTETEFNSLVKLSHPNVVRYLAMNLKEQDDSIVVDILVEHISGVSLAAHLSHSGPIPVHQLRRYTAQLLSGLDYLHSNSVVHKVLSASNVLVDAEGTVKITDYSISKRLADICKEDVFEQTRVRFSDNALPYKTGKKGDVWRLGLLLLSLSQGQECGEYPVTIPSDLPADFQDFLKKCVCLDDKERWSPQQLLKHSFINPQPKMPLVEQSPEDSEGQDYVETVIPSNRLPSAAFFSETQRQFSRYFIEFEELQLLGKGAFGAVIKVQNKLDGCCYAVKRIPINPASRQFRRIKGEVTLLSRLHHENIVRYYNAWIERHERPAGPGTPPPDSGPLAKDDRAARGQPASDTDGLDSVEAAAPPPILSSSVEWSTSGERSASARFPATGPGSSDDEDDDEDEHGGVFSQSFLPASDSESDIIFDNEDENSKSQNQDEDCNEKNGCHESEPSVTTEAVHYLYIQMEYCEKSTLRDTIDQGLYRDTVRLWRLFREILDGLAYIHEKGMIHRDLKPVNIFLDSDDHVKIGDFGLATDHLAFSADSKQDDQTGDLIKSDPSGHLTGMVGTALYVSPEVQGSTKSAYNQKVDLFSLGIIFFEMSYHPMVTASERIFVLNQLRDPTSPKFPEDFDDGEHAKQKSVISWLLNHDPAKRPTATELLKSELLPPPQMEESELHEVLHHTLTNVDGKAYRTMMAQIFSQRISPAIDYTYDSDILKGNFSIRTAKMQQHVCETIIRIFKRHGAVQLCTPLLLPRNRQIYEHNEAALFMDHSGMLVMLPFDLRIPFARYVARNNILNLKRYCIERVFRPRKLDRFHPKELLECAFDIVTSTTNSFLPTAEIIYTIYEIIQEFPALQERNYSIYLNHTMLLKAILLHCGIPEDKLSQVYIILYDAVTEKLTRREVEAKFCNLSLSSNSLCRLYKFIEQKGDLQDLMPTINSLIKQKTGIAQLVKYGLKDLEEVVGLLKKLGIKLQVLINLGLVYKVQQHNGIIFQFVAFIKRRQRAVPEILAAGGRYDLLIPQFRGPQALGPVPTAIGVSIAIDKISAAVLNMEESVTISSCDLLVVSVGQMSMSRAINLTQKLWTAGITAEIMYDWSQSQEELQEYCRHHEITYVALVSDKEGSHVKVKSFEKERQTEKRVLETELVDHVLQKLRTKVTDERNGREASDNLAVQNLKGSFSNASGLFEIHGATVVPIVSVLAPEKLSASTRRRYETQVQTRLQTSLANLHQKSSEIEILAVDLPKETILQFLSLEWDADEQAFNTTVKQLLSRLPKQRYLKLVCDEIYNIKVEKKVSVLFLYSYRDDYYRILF

One assay has as its target GCN2 kinase (Homo sapiens (Human), UniProt Q9P2K8). The assay can be described thus: GCN2 Enzyme Inhibition Assay (Transcreener ADP2 fluorescence polarization). The assay is classed as biochemical. To be noted: 280 μM ATP, 200 μM (RS)7 peptide, 4 nM GCN2, 25° C. As for the experimental part:
Compounds were screened for their ability to inhibit GCN2 kinase activity using a Transcreener® ADP^2 fluorescence polarization assay that detects ADP levels (BellBrook Labs, WI). Assays were carried out in a buffer consisting of 25 mM Tris-HCl (pH 7.5), 50 mM NaCl, 10 mM MgCl2 and 1 mM DTT. […] Assays were carried out at 25° C. in the presence of a (typical) final concentration of 4 nM GCN2 kinase. An assay buffer containing GCN2 kinase and (RS)7 was prepared. […] The plate was incubated for 10 minutes at 25° C. prior to the addition of 4.7 μL of ATP stock buffer to initiate the enzyme reaction. The reaction was allowed to proceed for 1 hour at 25° C., prior to the addition of 10 μL detection buffer (consisting of appropriate concentrations of ADP^2 antibody and ADP Alexa633 tracer in 1× stop and detect buffer as supplied by BellBrook Labs). […] Percentage inhibition of enzyme activity was then calculated at each compound dose. IC50 and Ki(app) (using known assay and kinetic parameters) values were calculated from percentage inhibition data using a non-linear, tight-binding algorithm. All data analysis was undertaken using the Screener® software package (Genedata, Switzerland).
A general note: In fluorescence polarisation assays a small probe gives low polarisation when free and higher when bound to something large.
For the compound `C[C@@H]1C[C@@H](c2cn[nH]c2)CN(c2nccc(-c3cnc4ccc(Cl)cn34)n2)C1` (stereo in doubt) [I-195, 6-chloro-3-(2-((3R,5S)-3-methyl-5-(1H-pyrazol-4-yl)piperidin-1-yl)pyrimidin-4-yl)imidazo[1,2-a]pyridine], the IC50 fell in the range of 0.01 to 0.1 µM.
Consider `CC(C)(C)OC(=O)NC1CN(c2ccnc(-c3cnc4ccc(Cl)cn34)n2)CC[C@H]1O` (stereo in doubt) [I-243, tert-butyl ((3R,4R)-1-(2-(6-chloroimidazo[1,2-a]pyridin-3-yl)pyrimidin-4-yl)-4-hydroxypiperidin-3-yl)carbamate], for which the IC50 lay in the range of 0.1 to 1 µM.
Same read-out and setting: the value for `NC1CN(c2ccnc(-c3cnc4ccc(Cl)cn34)n2)CC[C@H]1O` (stereo in doubt) [I-255, (3R,4R)-3-amino-1-(2-(6-chloroimidazo[1,2-a]pyridin-3-yl)pyrimidin-4-yl)piperidin-4-ol] was 0.1 to 1 µM.
In turn, `NC(=O)C1CCCN(c2nc(-c3cnc4ccc(C(F)(F)F)cn34)ncc2F)C1` (stereo in doubt) [I-282, (S)-1-(5-fluoro-2-(6-(trifluoromethyl)imidazo[1,2-a]pyridin-3-yl)pyrimidin-4-yl)piperidine-3-carboxamide] registered a half-inhibitory concentration (IC50) of 0.1 to 1 µM.
With `O=C([C@H]1C[C@H]1F)N1CCN(c2ccnc(-c3cnc4ccc(C(F)(F)F)cn34)n2)CC1c1cn[nH]c1` (stereo in doubt) [I-485, (2-(1H-pyrazol-4-yl)-4-(2-(6-(trifluoromethyl)imidazo[1,2-a]pyridin-3-yl)pyrimidin-4-yl)piperazin-1-yl)((1R,2R)-2-fluorocyclopropyl)methanone], the IC50 lay within 0.01 to 0.1 µM.
`O=C([C@H]1C[C@H]1F)N1CCN(c2ccnc(-c3cnc4ccc(C(F)(F)F)cn34)n2)CC1c1cn[nH]c1` (stereo in doubt) [I-489, (2-(1H-pyrazol-4-yl)-4-(2-(6-(trifluoromethyl)imidazo[1,2-a]pyridin-3-yl)pyrimidin-4-yl)piperazin-1-yl)((1R,2R)-2-fluorocyclopropyl)methanone] had an IC50 of 0.01 to 0.1 µM.
Still for that read-out and setting: the value for `N#CC1(C(=O)N2CCN(c3nccc(-c4cnc5ccc(C(F)(F)F)cn45)n3)C[C@@H]2c2cn[nH]c2)CC1` (stereo in doubt) [I-551, 1-(2-(1H-pyrazol-4-yl)-4-(4-(6-(trifluoromethyl)imidazo[1,2-a]pyridin-3-yl)pyrimidin-2-yl)piperazine-1-carbonyl)cyclopropane-1-carbonitrile] was 0.01 to 0.1 µM.

The same assay, now with this note: Ki(app); 280 μM ATP, 200 μM (RS)7 peptide, 4 nM GCN2, 25° C.
Take `Cc1nnc([C@@H]2CN(c3ccnc(-c4cnc5ccc(C(F)(F)F)cn45)n3)C[C@H](C)O2)o1` (relative stereo) [I-93, cis-2-methyl-6-(5-methyl-1,3,4-oxadiazol-2-yl)-4-{2-[6-(trifluoromethyl)imidazo[1,2-a]pyridin-3-yl]pyrimidin-4-yl}morpholine]: the Ki was 0.01 to 0.1 µM.
Consider `Cc1nnc([C@@H]2CN(c3ccnc(-c4cnc5ccc(C#N)cn45)n3)C[C@H](C)O2)o1` (relative stereo) [I-94, 3-{4-[cis-2-methyl-6-(5-methyl-1,3,4-oxadiazol-2-yl)morpholin-4-yl]pyrimidin-2-yl}imidazo[1,2-a]pyridine-6-carbonitrile], for which the Ki was 0.1 to 1 µM.
Consider `Cc1nnc([C@@H]2CN(c3ccnc(-c4cnc5ccc(Cl)cn45)n3)C[C@H](C)O2)o1` (relative stereo) [I-95, cis-4-(2-{6-chloroimidazo[1,2-a]pyridin-3-yl}pyrimidin-4-yl)-2-methyl-6-(5-methyl-1,3,4-oxadiazol-2-yl)morpholine], for which the Ki lay in the range of 0.01 to 0.1 µM.
`C[C@@H]1CN(c2ccnc(-c3cnc4ccc(C(F)(F)F)cn34)n2)[C@H](C)[C@H](c2cn[nH]c2)N1` (stereo in doubt) [I-38, 3-[4-[2,5-dimethyl-3-(1H-pyrazol-4-yl)piperazin-1-yl]pyrimidin-2-yl]-6-(trifluoromethyl)imidazo[1,2-a]pyridine] registered a Ki of 0.01 to 0.1 µM.
Still for that read-out and setting: the value for `Cc1noc([C@@H]2CN(c3ccnc(-c4cnc5ccc(C(F)(F)F)cn45)n3)C[C@H](C)O2)n1` (stereo in doubt) [I-89, 2-methyl-6-(3-methyl-1,2,4-oxadiazol-5-yl)-4-{2-[6-(trifluoromethyl)imidazo[1,2-a]pyridin-3-yl]pyrimidin-4-yl}morpholine] was 0.01 to 0.1 µM; that for `CS(=O)(=O)N1CCC2(CCCN2c2ccnc(-c3cnc4ccc(C(F)(F)F)cn34)n2)CC1` [I-7, 8-Methylsulfonyl-1-[2-[6-(trifluoromethyl)imidazo[1,2-a]pyridin-3-yl]pyrimidin-4-yl]-1,8-diazaspiro[4.5]decane] was 0.1 to 1 µM; that for `O=C1CCN(c2ccnc(-c3cnc4ccc(Cl)cn34)n2)CCN1` [I-26, 1-[2-(6-Chloroimidazo[1,2-a]pyridin-3-yl)pyrimidin-4-yl]-1,4-diazepan-5-one] was 0.1 to 1 µM.
`CS(C)(=O)=NC1CCCN(c2ccnc(-c3cnc4ccc(Cl)cn34)n2)C1` (centres unmarked) [I-30, ((1-(2-(6-Chloroimidazo[1,2-a]pyridin-3-yl)pyrimidin-4-yl)piperidin-3-yl)imino)dimethyl-λ^6-sulfanone] returned a Ki of 0.1 to 1 µM.
As for `CC1CC(C(N)=O)C(C)N(c2ccnc(-c3cnc4cc(F)c(Cl)cn34)n2)C1` (centres unmarked) [I-52, 1-[2-(6-Chloro-7-fluoro-imidazo[1,2-a]pyridin-3-yl)pyrimidin-4-yl]-2,5-dimethyl-piperidine-3-carboxamide], the Ki is below 0.01 µM.
Still for that read-out and setting: the value for `Cn1cc(NC(=O)[C@H]2CCCN(c3ccnc(-c4cnc5cc(F)c(Cl)cn45)n3)C2)cn1` [I-77, (S)-1-[2-(6-Chloro-7-fluoro-imidazo[1,2-a]pyridin-3-yl)-pyrimidin-4-yl]-piperidine-3-carboxylic acid (1-methyl-1H-pyrazol-4-yl)-amide] was 0.1 to 1 µM; that for `N[C@H]1CCCN(c2ccnc(-c3cnc4ccc(Cl)cn34)n2)C1` [I-87, (3S)-1-(2-{6-chloroimidazo[1,2-a]pyridine-3-yl}pyrimidin-4-yl)piperidin-3-amine] was 0.1 to 1 µM.
In turn, `Cc1noc([C@@H]2CN(c3ccnc(-c4cnc5ccc(C#N)cn45)n3)C[C@H](C)O2)n1` [I-91, 3-{4-[(2S,6S)-2-methyl-6-(3-methyl-1,2,4-oxadiazol-5-yl)morpholin-4-yl]pyrimidin-2-yl}imidazo[1,2-a]pyridine-6-carbonitrile] had a Ki of 0.01 to 0.1 µM.
For the compound `O=C1NCCC2CN(c3ccnc(-c4cnc5ccc(Cl)cn45)n3)CCN12` (centres unmarked) [I-96, 2-(2-{6-chloroimidazo[1,2-a]pyridin-3-yl}pyrimidin-4-yl)-octahydro-1H-pyrazino[1,2-c]pyrimidin-6-one], the Ki is below 0.01 µM.
The same measure, in the same setting: the result for `O=C1NCC2CN(c3ccnc(-c4cnc5ccc(Cl)cn45)n3)CCN12` (centres unmarked) [I-97, 7-(2-{6-chloroimidazo[1,2-a]pyridin-3-yl}pyrimidin-4-yl)-octahydroimidazo[1,5-a]pyrazin-3-one] reads 0.01 to 0.1 µM.
On to `O=C1OCCC2CN(c3ccnc(-c4cnc5ccc(Cl)cn45)n3)CCN12` (centres unmarked) [I-98, 2-(2-{6-chloroimidazo[1,2-a]pyridin-3-yl}pyrimidin-4-yl)-octahydropyrazino[1,2-c][1,3]oxazin-6-one], for which the Ki lay within 0.01 to 0.1 µM.
Same read-out and setting: the result for `O=C1OCC2CN(c3ccnc(-c4cnc5ccc(Cl)cn45)n3)CCN12` (centres unmarked) [I-99, 7-(2-{6-chloroimidazo[1,2-a]pyridin-3-yl}pyrimidin-4-yl)-hexahydro-1H-[1,3]oxazolo[3,4-a]pyrazin-3-one] reads 0.01 to 0.1 µM.

The IC50 is the concentration needed to halve the response being measured.
